According to patent US11214803B2, “Modulators of YAP1 expression” (Ionis Pharmaceuticals, Inc., priority 2019, dated 2022):
Strand notation (5' to 3'): a small letter for the sugar, then the base; units joined by * are phosphorothioate-linked, units joined directly phosphodiester-linked; [ ] holds rarer units or linkages, { } end groups; capitals alone tell only the bases. k = constrained ethyl (cEt); [5mC] = 5-methylcytosine; d = 2'-deoxy (DNA)

What follows are substances tested on Yap1 mRNA (assay: Antisense inhibition of human Yap1 in A-431 cells by cEt gapmers, single dose (Example 3, RTS36584)). Settings: Table 8; A-431 cells, 5,000 cells per well, free uptake, 2,000 nM, approximately 48 hours; RTS36584; normalized to RIBOGREEN; Yap1 mRNA relative to untreated control cells.
Format: cell-based
Method in brief: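 Free uptake, 2,000 nM, ~48 h, A-431 cells. Gapmers: 16-mer 3-10-3 cEt wings, PS backbone, 5-MeC. Readout qRT-PCR, RiboGreen-normalized, % UTC.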
With “958361 (antisense kG*k[5mC]*kT*d[5mC]*dG*dA*dA*d[5mC]*dA*dT*dG*d[5mC]*dT*kG*kT*kG) [Compound 958361]” the “YAP1 (% UTC)” value was 8 % UTC. With “958418 (antisense kA*kG*kA*dG*d[5mC]*d[5mC]*dT*dA*d[5mC]*d[5mC]*dT*dG*dA*k[5mC]*kA*kT) [Compound 958418]” the “YAP1 (% UTC)” value was 47 % UTC. With “958388 (antisense kG*kG*kA*dG*dG*d[5mC]*dG*d[5mC]*dG*d[5mC]*dG*d[5mC]*dA*kT*kT*kG) [Compound 958388]” the “YAP1 (% UTC)” value was 112 % UTC.

Same assay, conditions: Table 9; A-431 cells, 5,000 cells per well, free uptake, 2,000 nM, approximately 48 hours; RTS36584; normalized to RIBOGREEN; Yap1 mRNA relative to untreated control cells
For “958641 (antisense kA*kG*k[5mC]*dT*dA*d[5mC]*dA*dG*dA*dG*d[5mC]*dT*dT*kA*kA*k[5mC]) [Compound 958641]”, the “YAP1 (% UTC)” value was 102 % UTC. In the case of “958761 (antisense kA*kG*kT*d[5mC]*dT*d[5mC]*dA*dA*d[5mC]*dA*dA*d[5mC]*d[5mC]*kT*kT*k[5mC]) [Compound 958761]”, the “YAP1 (% UTC)” value is reported as 7 % UTC. With “958531 (kG*kT*kA*dG*dG*dA*dG*d[5mC]*dA*dA*dG*dT*d[5mC]*kT*kT*kG; antisense) [Compound 958531]” the “YAP1 (% UTC)” value was 5 % UTC.

Same assay, conditions: Table 10; A-431 cells, 5,000 cells per well, free uptake, 2,000 nM oligonucleotide, approx. 48 hours; primer probe set RTS36584; Yap1 mRNA normalized to RIBOGREEN, percent of untreated control
“958632 (antisense k[5mC]*kT*k[5mC]*d[5mC]*dG*dA*d[5mC]*dA*dG*dG*dA*dG*dA*k[5mC]*kT*kA) [Compound 958632]” was tested, and the “YAP1 (% UTC)” value was 55 % UTC. “958442 (antisense kG*kG*kA*dG*dA*dA*dG*d[5mC]*dG*dG*d[5mC]*dG*dA*k[5mC]*kG*kG) [Compound 958442]” was tested, and the “YAP1 (% UTC)” value was 21 % UTC. In the case of “958682 (k[5mC]*k[5mC]*kA*dT*dG*dA*dG*dG*dG*dA*d[5mC]*dT*d[5mC]*k[5mC]*k[5mC]*kA; antisense) [Compound 958682]”, the “YAP1 (% UTC)” value is reported as 123 % UTC. For “958752 (antisense kG*kA*kA*dT*dT*dT*dT*dT*dA*dG*dT*d[5mC]*d[5mC]*kA*kG*kT) [Compound 958752]”, the “YAP1 (% UTC)” value was 2 % UTC. With “958592 (k[5mC]*kG*kT*dA*dA*dG*dA*dT*d[5mC]*dA*dA*dA*dG*k[5mC]*kA*k[5mC]; antisense) [Compound 958592]” the “YAP1 (% UTC)” value was 12 % UTC.

Same assay, conditions: Table 11; A-431 cells, 5,000 cells per well, free uptake, 2,000 nM oligonucleotide, approx. 48 hours; primer probe set RTS36584; Yap1 mRNA normalized to RIBOGREEN, percent of untreated control
“958798 (antisense kT*kG*k[5mC]*dA*dG*dT*dA*dT*dA*dA*dT*dA*dT*k[5mC]*k[5mC]*kT) [Compound 958798]” was tested, and the “YAP1 (% UTC)” value was 3 % UTC. For “958818 (kG*kT*kT*dG*dT*d[5mC]*dA*dA*d[5mC]*dT*d[5mC]*dT*dA*kG*kG*kG; antisense) [Compound 958818]”, the “YAP1 (% UTC)” value was 23 % UTC. With “958683 (kT*kA*kT*dT*dG*dT*dG*d[5mC]*dT*dG*d[5mC]*dA*dT*k[5mC]*kT*k[5mC]; antisense) [Compound 958683]” the “YAP1 (% UTC)” value was 16 % UTC. “958778 (antisense kG*k[5mC]*kT*dA*d[5mC]*d[5mC]*dT*dG*dG*dA*dG*d[5mC]*dG*kA*kA*kG) [Compound 958778]” was tested, and the “YAP1 (% UTC)” value was 75 % UTC. “958483 (antisense kG*kA*kG*dG*dA*dT*dT*dA*dA*dA*dG*dT*dA*kT*k[5mC]*kT) [Compound 958483]” was tested, and the “YAP1 (% UTC)” value was 17 % UTC. For “958493 (kA*kA*kA*d[5mC]*dA*dG*dT*d[5mC]*dT*dT*d[5mC]*dA*dG*k[5mC]*k[5mC]*kT; antisense) [Compound 958493]”, the “YAP1 (% UTC)” value was 16 % UTC. In the case of “958543 (kA*k[5mC]*k[5mC]*dT*dT*dA*dT*dA*dG*dT*dA*dT*dT*k[5mC]*kT*kA; antisense) [Compound 958543]”, the “YAP1 (% UTC)” value is reported as 4 % UTC. With “958468 (antisense kT*kT*kG*dG*dT*dG*dG*d[5mC]*dA*dG*d[5mC]*d[5mC]*dA*kA*kA*kA) [Compound 958468]” the “YAP1 (% UTC)” value was 86 % UTC. “958733 (antisense kT*kA*kA*dT*dA*dG*dA*d[5mC]*dT*dA*dG*dA*d[5mC]*kT*kT*kA) [Compound 958733]” was tested, and the “YAP1 (% UTC)” value was 67 % UTC. For “958728 (antisense kT*kA*kT*d[5mC]*dT*dG*dT*d[5mC]*dA*dG*dT*dT*dA*kT*k[5mC]*k[5mC]) [Compound 958728]”, the “YAP1 (% UTC)” value was 10 % UTC.

Same assay, conditions: Table 12; A-431 cells, 5,000 cells per well, free uptake, 2,000 nM modified oligonucleotide, approx. 48 hours; RTS36584; normalized to RIBOGREEN; Yap1 mRNA relative to untreated control cells
With “958629 (antisense k[5mC]*k[5mC]*k[5mC]*dG*dA*dG*dT*dG*dG*dG*d[5mC]*dT*dA*kA*k[5mC]*kT) [Compound 958629]” the “YAP1 (% UTC)” value was 128 % UTC. With “958784 (antisense kG*kG*k[5mC]*dT*dG*dG*dA*dT*dA*dG*dA*dA*dT*kG*k[5mC]*kT) [Compound 958784]” the “YAP1 (% UTC)” value was 79 % UTC. For “958764 (antisense kT*kG*kG*dG*dT*d[5mC]*dT*d[5mC]*dT*dT*dG*dA*dT*kT*kT*k[5mC]) [Compound 958764]”, the “YAP1 (% UTC)” value was 34 % UTC. For “958549 (kT*kG*kT*dA*dG*dA*d[5mC]*dA*d[5mC]*dA*dT*dA*d[5mC]*kT*k[5mC]*kT; antisense) [Compound 958549]”, the “YAP1 (% UTC)” value was 8 % UTC. In the case of “958534 (kT*kT*k[5mC]*dA*dG*d[5mC]*dA*dT*dA*dG*dA*dA*dG*kT*kA*kG; antisense) [Compound 958534]”, the “YAP1 (% UTC)” value is reported as 3 % UTC. With “958779 (antisense kT*k[5mC]*kG*dA*dA*dT*dA*dT*dA*dG*dA*dG*dG*k[5mC]*k[5mC]*kT) [Compound 958779]” the “YAP1 (% UTC)” value was 80 % UTC.

Same assay, conditions: Table 13; A-431 cells, 5,000 cells per well, free uptake, 2,000 nM modified oligonucleotide, approx. 48 hours; RTS36584; normalized to RIBOGREEN; Yap1 mRNA relative to untreated control cells
“958535 (kG*kG*kG*dT*d[5mC]*dA*dA*dT*dT*dT*dT*d[5mC]*dA*kG*k[5mC]*kA; antisense) [Compound 958535]” was tested, and the “YAP1 (% UTC)” value was 10 % UTC. “958585 (k[5mC]*kT*k[5mC]*dT*dA*dT*d[5mC]*dA*dA*dG*dG*dT*d[5mC]*k[5mC]*k[5mC]*k[5mC]; antisense) [Compound 958585]” was tested, and the “YAP1 (% UTC)” value was 5 % UTC. “958550 (k[5mC]*k[5mC]*kT*dG*dT*dA*dG*dA*d[5mC]*dA*d[5mC]*dA*dT*kA*k[5mC]*kT; antisense) [Compound 958550]” was tested, and the “YAP1 (% UTC)” value was 4 % UTC.

Same assay, conditions: Table 26; Yap1 mRNA by 3-10-3 cEt gapmers targeting SEQ ID NO.: 1, and 2; percent of untreated control
With “1075148 (k[5mC]*kG*kG*dA*dA*dA*dA*dA*dA*d[5mC]*dA*d[5mC]*d[5mC]*kT*kA*kG; antisense) [compound 1075148]” the “YAP1 (% UTC)” value was 66 % UTC. “1075756 (kA*kT*kT*dT*dA*d[5mC]*d[5mC]*d[5mC]*dT*dG*d[5mC]*d[5mC]*dA*k[5mC]*kT*kT; antisense) [compound 1075756]” was tested, and the “YAP1 (% UTC)” value was 49 % UTC. For “1076108 (kA*kA*kA*d[5mC]*dA*dA*dA*dA*d[5mC]*d[5mC]*dG*dG*d[5mC]*kT*kT*kT; antisense) [compound 1076108]”, the “YAP1 (% UTC)” value was 116 % UTC.

Same assay, conditions: Table 27; Yap1 mRNA by 3-10-3 cEt gapmers targeting SEQ ID NO.: 1, and 2; percent of untreated control
In the case of “1076333 (antisense k[5mC]*kT*kA*dT*dA*dA*dG*dG*dA*dA*dT*dG*dG*k[5mC]*kA*kA) [compound 1076333]”, the “YAP1 (% UTC)” value is reported as 97 % UTC. In the case of “1074829 (kG*kG*kA*dT*dA*dA*dA*dA*dT*d[5mC]*d[5mC]*dA*d[5mC]*k[5mC]*kT*kG; antisense) [compound 1074829]”, the “YAP1 (% UTC)” value is reported as 92 % UTC. In the case of “1074989 (antisense kG*kA*kG*dG*dG*dA*dA*dA*dG*d[5mC]*dA*d[5mC]*dG*k[5mC]*k[5mC]*k[5mC]) [compound 1074989]”, the “YAP1 (% UTC)” value is reported as 105 % UTC. With “1076237 (kA*k[5mC]*kT*dA*dA*dA*dG*dG*dA*d[5mC]*dA*dA*dA*kG*kG*kT; antisense) [compound 1076237]” the “YAP1 (% UTC)” value was 109 % UTC.

Same assay, conditions: Table 28; Yap1 mRNA as percent of untreated control; 3-10-3 cEt gapmers targeting SEQ ID NO.: 1, and 2
“1075310 (antisense kG*kT*kA*dA*dT*dT*dA*dA*dA*d[5mC]*dG*dA*dA*kA*k[5mC]*kA) [compound 1075310]” was tested, and the “YAP1 (% UTC)” value was 84 % UTC.

Same assay, conditions: Table 29; Yap1 mRNA as percent of untreated control; 3-10-3 cEt gapmers targeting SEQ ID NO.: 1, and 2
In the case of “1076335 (antisense k[5mC]*kA*k[5mC]*d[5mC]*dT*dA*dT*dA*dA*dG*dG*dA*dA*kT*kG*kG) [compound 1076335]”, the “YAP1 (% UTC)” value is reported as 80 % UTC. With “1076559 (kA*kA*k[5mC]*dA*dA*dA*dT*dA*dT*dA*dG*dT*dT*kA*kG*k[5mC]; antisense) [compound 1076559]” the “YAP1 (% UTC)” value was 74 % UTC. In the case of “1076271 (k[5mC]*kG*kG*d[5mC]*dA*dA*d[5mC]*dA*dA*d[5mC]*dA*dA*dA*kA*kT*kG; antisense) [compound 1076271]”, the “YAP1 (% UTC)” value is reported as 18 % UTC. “1075791 (k[5mC]*kT*kT*dT*dA*dT*d[5mC]*dA*dG*d[5mC]*d[5mC]*dA*dT*k[5mC]*kA*k[5mC]; antisense) [compound 1075791]” was tested, and the “YAP1 (% UTC)” value was 10 % UTC. In the case of “1074511 (kG*kA*kT*dA*d[5mC]*dA*dT*dT*d[5mC]*d[5mC]*dA*d[5mC]*dT*kA*k[5mC]*k[5mC]; antisense) [compound 1074511]”, the “YAP1 (% UTC)” value is reported as 9 % UTC.

Same assay, conditions: Table 34; Yap1 mRNA as percent of untreated control; 3-10-3 cEt gapmers targeting SEQ ID NO: 1 and 2; single dose
“1075732 (kA*kA*kT*dA*dA*d[5mC]*d[5mC]*dT*d[5mC]*dG*dA*dG*dT*kG*k[5mC]*kT; antisense) [compound 1075732]” was tested, and the “YAP1 (% UTC)” value was 36 % UTC. “1076436 (k[5mC]*kA*kT*dT*dA*d[5mC]*dT*dA*d[5mC]*dT*d[5mC]*dT*dG*kT*k[5mC]*k[5mC]; antisense) [compound 1076436]” was tested, and the “YAP1 (% UTC)” value was 39 % UTC.

Same assay, conditions: Table 35; Yap1 mRNA as percent of untreated control; 3-10-3 cEt gapmers targeting SEQ ID NO: 1 and 2; single dose
For “1076341 (antisense kA*kT*kT*dA*dA*d[5mC]*dT*dA*d[5mC]*dA*dA*d[5mC]*dT*kG*kT*kG) [compound 1076341]”, the “YAP1 (% UTC)” value was 18 % UTC.
